Experimental data reported in the supplement of paper PMC5412046.

Key:
SB.msgc-1 [1] = assay: area under the dose-response curve of % viability (trapezoidal, 11 doses) (% viability x log10 concentration); higher = less cytotoxic; settings: SB.msgc-1 (sporadic gastric cancer)
How it was run: (§1)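 Using a pintool, 23 nL of compound in DMSO was transferred at 11 threefold-diluted concentrations onto patient-derived gastric cancer cells, hereditary or sporadic, plated at 500 cells in 5 μL medium per 1536 well. CellTiter-Glo luminescence was read after 48 h. Each value is viability normalised to DMSO, either at the highest concentration or as trapezoidal area under the curve.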

SB.mhdgc-1 [2] = assay: as above; settings: SB.mhdgc-1 (hereditary c.1380delA CDH1 gastric cancer)
How it was run: as §1

SB.msgc-1 [3] = assay: viability at highest tested concentration (MAXR) relative to DMSO; higher = less cytotoxic; settings: SB.msgc-1 (sporadic gastric cancer)
How it was run: as §1

SB.mhdgc-1 [4] = assay: as above; settings: SB.mhdgc-1 (hereditary c.1380delA CDH1 gastric cancer)
How it was run: as §1

Row | SMILES | area under the dose-response curve (SB.msgc-1 [1]) | area under the dose-response curve (SB.mhdgc-1 [2]) | viability (SB.msgc-1 [3]) [%] | viability (SB.mhdgc-1 [4]) [%]
1 | CC(C)(C(=O)NCC(F)(F)C(F)(F)F)C(=O)N[C@@H]1C(=O)Nc2ccccc2-c2ccccc21 (top concentration 46.0829 µM) | 452 | 408 | 59.3 | 31.8
2 | CC(C)(Cc1ccc2ccccc2c1)NC[C@@H](O)COc1cccc(Cl)c1C#N (top concentration 46.0829 µM) | 585 | 484 | 105 | 47.5
3 | CC(C)(O)Cn1c(NC(=O)c2ccc(-c3cn[nH]c3)s2)nc2cc(CN3CCOCC3)ccc21 (top concentration 46.0829 µM) | 455 | 366 | 23.5 | 7.07
4 | CC(=O)Nc1ccc([C@H](C)C(=O)Nc2ncc(C(C)C)s2)cc1 (top concentration 46.0829 µM) | 425 | 340 | 45.1 | 51.4
5 | CC(C)C1=N[N](C\2=C1C(=O)N\C(=N2)CC3=CC=C(OCCO)C=C3)C4=C(Cl)C=CC=C4Cl (top concentration 46.0829 µM) | 353 | 274 | 24.2 | 21.9
6 | CC(C)CC(=O)Nc1n[nH]c2c1CN(C(=O)C1CCN(C)CC1)C2(C)C (top concentration 46.0829 µM) | 390 | 329 | 43.2 | 73.2
7 | CC/1=C(/C(CC(=O)N1)C2=CC=C(C=C2)C(F)(F)F)C(=O)NC3=C(F)C=C4[NH]N=CC4=C3 (stereo unspecified) (top concentration 46.0829 µM) | 539 | 407 | 78.2 | 67.9
8 | CC1(C)OC/2=C(\[C@H](NCC3=CC=CC=C3)[C@@H]1O)C(=O)C4=CC=CC=C4C2=O (top concentration 46.0829 µM) | 348 | 419 | 1.97 | 4.38
9 | Cc1c(C(=O)Nc2cccc(C(F)(F)F)c2)cc(-c2ccccc2)n1CCCN1CCOCC1 (top concentration 46.0829 µM) | 478 | 516 | 30.5 | 3.83
10 | Cc1cccc2c1CC[C@H](CN1CCC(c3c(Cl)cccc3Cl)CC1)C[C@@H]2O (top concentration 46.0829 µM) | 506 | 506 | 52 | 23.2
11 | Cc1ccc(C(C)(O)c2nc3ccccc3s2)c(C)c1 (stereo unspecified) (top concentration 46.0829 µM) | 524 | 527 | 104 | 55.3
12 | Cc1cccc(Nc2nc(-c3ccncc3)cs2)c1 (top concentration 46.0829 µM) | 503 | 477 | 55.6 | 40.5
13 | Cc1ccnc(N[S+](=O)([O-])c2ccc(NC(=O)Nc3ccc([S+](=O)([O-])Nc4nccc(C)n4)cc3)cc2)n1 (top concentration 46.0829 µM) | 425 | 535 | 40.7 | 93.5
14 | Cc1c(Cn2c(C)nc3c(C(=O)O)cc(N4CCOCC4)cc32)cccc1C(F)(F)F (top concentration 46.0829 µM) | 424 | 362 | 54.2 | 43.2
15 | CCNC(=O)C[C@H]1/N=C(/C2=CC=C(Cl)C=C2)C3=CC(=CC=C3[N]4C(=NN=C14)C)OC (top concentration 46.0829 µM) | 439 | 476 | 25.9 | 36
16 | CCNC(=O)Nc1ccc(Oc2ncnc(N)c2/C=N/OC)cc1Cl (top concentration 46.0829 µM) | 481 | 534 | 53.8 | 83
17 | CCOc1cc(/C=C2/C(=O)N(c3ccccc3)N=C2C)cc(Cl)c1OCC(=O)OC (top concentration 46.0829 µM) | 492 | 378 | 78.5 | 42.6
18 | CCOC\1=C(/C(=O)NC2=CC=C(OC3=C(Cl)C(=NC=C3)N)C(=C2)F)C(=O)N(\C=C1)C4=CC=C(F)C=C4 (top concentration 46.0829 µM) | 512 | 562 | 59.8 | 68.7
19 | CCn1c(C(=O)N(C2CC2)C2CC2)cc2c3c(ncn3C)c(Nc3cc(C)n(C)n3)nc21 (top concentration 46.0829 µM) | 512 | 503 | 91.1 | 91.1
20 | CCn1c(-c2nonc2N)nc2c(C#CC(C)(C)O)ncc(OC[C@H]3CCCNC3)c21 (top concentration 46.0829 µM) | 430 | 351 | 58.6 | 20
21 | CCn1c(-c2nonc2N)nc2cncc(CNC3CCNCC3)c21 (top concentration 46.0829 µM) | 534 | 484 | 93.4 | 65.3
22 | CN(C)CC(=O)N1CCC(CC1)C2=CC=C(NC(=O)C3=NC(=C[NH]3)C#N)C(=C2)\C4=C\CCCC4 (top concentration 46.0829 µM) | 448 | 486 | 35.1 | 47.5
23 | CN(C)CCN(C)C(=O)c1ccc(NC(=O)Nc2ccc(-c3nc(N4CCOCC4)c4ccn(CC(F)(F)F)c4n3)cc2)cc1 (top concentration 46.0829 µM) | 332 | 162 | 4.2 | 2.92
24 | Cc1nc(Nc2n[nH]c3c2CN(C(=O)N[C@H](CN(C)C)c2ccccc2)C3(C)C)c2sccc2n1 (top concentration 46.0829 µM) | 284 | 310 | 33.7 | 35.4
25 | CN(C1CCc2c(c3ccccc3n2CC(=O)O)C1)[S+](=O)([O-])c1ccc(F)cc1 (stereo unspecified) (top concentration 46.0829 µM) | 568 | 475 | 35.8 | 41.3

Row | SMILES | area under the dose-response curve (SB.msgc-1 [1]) | area under the dose-response curve (SB.mhdgc-1 [2]) | viability (SB.msgc-1 [3]) [%] | viability (SB.mhdgc-1 [4]) [%]
26 | CN1C(=O)C(=C\C2=C1N=C(NC3=CC=CC(=C3)C(O)=O)N=C2)/C4=C(Cl)C=CC=C4Cl (top concentration 46.0829 µM) | 407 | 518 | 44.5 | 59.3
27 | CN1CCC(CC1)COC2=CN=C(N=C2)C3=CC(=CC=C3)CN4/N=C(\C=C/C4=O)C5=CC(=CC=C5)C#N (top concentration 46.0829 µM) | 325 | 347 | 41 | 4.88
28 | CN1CCN(c2cccc(Nc3nc4c(-c5ccc([S+](C)(=O)[O-])cc5)cccn4n3)c2)CC1 (top concentration 46.0829 µM) | 494 | 450 | 68 | 71.6
29 | CNC(=O)C1=CC=C(C)C(=C1)N2C(=C/C(=C(/Br)C2=O)OCC3=C(F)C=C(F)C=C3)\C (top concentration 46.0829 µM) | 473 | 496 | 72.6 | 63.9
30 | COc1cc(Oc2ccnc3cc(OC)c(OC)cc23)ccc1NC(=O)NC(C)c1nccs1 (stereo unspecified) (top concentration 46.0829 µM) | 504 | 480 | 64.4 | 8.29
31 | COc1cc2nc(-c3cc(F)ccc3O)nc(N[C@@H]3CNC[C@H]3C(C)(C)O)c2cc1OC (top concentration 46.0829 µM) | 469 | 384 | 24.8 | 3.32
32 | COc1ccc(Cc2ccc(NC(N)=O)cc2)cc1-c1cccc(Cl)c1 (top concentration 46.0829 µM) | 579 | 492 | 81.3 | 84.8
33 | COc1ccc(Cn2ccc3ccc(C(=O)NO)cc32)cc1 (top concentration 46.0829 µM) | 493 | 559 | 78.3 | 101
34 | COC1=CC=CC(=C1N)\C2=C\C(=O)C3=C(O2)C=CC=C3 (top concentration 46.0829 µM) | 495 | 432 | 59.1 | 42
35 | COc1nccc(-c2c(-c3ccc(F)cc3)ncn2C2CCNCC2)n1 (top concentration 46.0829 µM) | 553 | 544 | 83.4 | 68.6
36 | CSC1=CC(=CC=C1)NC2=NC3=C(C=N2)/C=C(C(=O)N3C)/C4=C(Cl)C=CC=C4Cl (top concentration 46.0829 µM) | 399 | 490 | 42.9 | 53.5
37 | C[C@H](NC(=O)Cc1cc(F)cc(F)c1)C(=O)N[C@@H]1C(=O)N(C)c2ccccc2-c2ccccc21 (top concentration 46.0829 µM) | 491 | 423 | 38.9 | 32.4
38 | C[C@H](NCc1ccc2c(c1)nc(NC(=O)c1ccc(-c3cn[nH]c3)s1)n2CCc1ccccc1)C(C)(C)C (top concentration 46.0829 µM) | 400 | 350 | 1.8 | 2.84
39 | Cn1cc(-c2ccc3nnc(C(F)(F)c4ccc5ncccc5c4)n3n2)cn1 (top concentration 46.0829 µM) | 508 | 589 | 96.1 | 114
40 | CN(C(=O)c1ccc(F)cc1C(F)(F)F)C1CCN(c2nnc(-c3ccnn3C)c3ccccc23)CC1 (top concentration 46.0829 µM) | 399 | 368 | 59.5 | 51.3
41 | O=C(NCc1ccncc1)C12C[C@H]3C[C@@H](C1)CC(c1ccc(Cl)cc1)(C3)C2 (top concentration 46.0829 µM) | 469 | 472 | 41.1 | 41.2
42 | N#C/C(=C1/Nc2ccccc2S1)c1ccnc(OCc2ccc(CN3CCOCC3)cc2)n1 (top concentration 46.0829 µM) | 312 | 267 | 12.5 | 5.64
43 | NC1=C(Cl)C(=CC=N1)OC2=C(F)C=C(NC(=O)\C3=C\N\C=C(C3=O)\C4=CC=C(F)C=C4)C=C2 (top concentration 46.0829 µM) | 497 | 413 | 41.1 | 62.3
44 | Nc1nc(Nc2ccc([S+](N)(=O)[O-])cc2)nn1C(=O)c1c(F)cccc1F (top concentration 46.0829 µM) | 433 | 459 | 49.1 | 63.7
45 | O=C(C1CC1)N1CC[C@@H](Cn2c(-c3ccc(-c4ccc5occc5c4)cc3)nc3cnccc32)C1 (top concentration 46.0829 µM) | 508 | 536 | 54.8 | 63.9
46 | Oc1cc(-c2nc(-c3ccccc3)[nH]c2-c2ccncc2)ccc1Cl (top concentration 46.0829 µM) | 488 | 384 | 70.2 | 19
47 | OCCn1cc(-c2ccc3c(c2)CC/C3=N\O)c(-c2ccncc2)n1 (top concentration 46.0829 µM) | 565 | 542 | 91.9 | 116
48 | OCCn1cc(-c2cnc3nnn(Cc4ccc5ncccc5c4)c3n2)cn1 (top concentration 46.0829 µM) | 515 | 588 | 93.7 | 55.1
49 | OC[C@H]1O[C@H]([C@@H](F)[C@@H]1O)N2\C=C/C(=O)NC2=O (top concentration 46.0829 µM) | 451 | 538 | 38.1 | 46.4
